Structures are written as SMILES.

Our source for the activity values is patent publication US8604030B2, “Fused piperidine compound and pharmaceutical containing same” (Kowa Company, Ltd., priority 2009, dated 2013).

Assay [1] has as its system Human hepatocellular carcinoma cell line HepG2. Nature of the assay: EPO production in HepG2 culture supernatant (ELISA), 48 hours at 4% oxygen. The format is cell-based. The note with it: oxygen concentration 4%, 100% = EPO produced in non-stimulated state without compound; for activity at 10 µM: test compound 10 μM, read-out: % of Control (10 μM), produced amount of EPO; for activity at 3 µM: test compound 3 μM, read-out: % of Control (3 μM), produced amount of EPO. The method, then: Human hepatocellular carcinoma cell line HepG2 was inoculated in aliquots of 5×10^4 cells each into each of the wells of a 48-well plate using minimum essential medium (MEM, Sigma) containing 10% fetal bovine serum. On the following day, the medium was replaced with Dulbecco's Modified Eagle Medium (DMEM, Sigma) not containing phenol red but containing 10% fetal bovine serum followed by the addition of a test compound dissolved in DMSO to a final concentration of 3 μM or 10 and bringing to a final media volume of 400 μl per well. After incubating for 48 hours in a CO2 incubator having an oxygen concentration of 4%, the culture supernatant was recovered. The concentration of EPO in the culture supernatant was measured immediately using an ELISA kit (Roche Diagnostics). The procedure used complied with that described in the instructions.
The produced amount of EPO derived from each compound was determined based on a value of 100% for the amount of EPO produced in a non-stimulated state in the absence of addition of a compound (% of control).
Background: ELISA stands for enzyme-linked immunosorbent assay.

Assay [2] has as its system Human proerythroblast cell line K562. Kind of assay: Hemoglobin production in K562 cells (porphyrin ring fluorescence). The note with it: 72 h, test compound 6 μM, 3 days + 3 days after medium replacement, 3×10^5 cells, 100% = hemoglobin produced in non-stimulated state without compound, read-out: % of Control (6 μM), amount of hemoglobin produced. The assay is classed as cell-based. How it is done: Human proerythroblast cell line K562 (acquired from ATCC) was inoculated in aliquots of 1×10^5 cells/mL into each of the wells of a 24-well plate using complete medium (RPMI-1640 medium containing 10% fetal bovine serum), followed by the addition of the test compounds at a final concentration of 6 μM and incubating for 3 days in a CO2 incubator (37° C., 5% CO2). Culturing was continued for an additional 3 days after replacing the medium. The cells were then collected and counted followed by unifying to a cell count of 3×10^5 cells and determining the amount of hemoglobin produced in the cells by measuring the fluorescence of the porphyrin ring. Namely, the cells collected by centrifugation were suspended in 500 μL of 2 M oxalic acid, and boiled for 30 minutes and allowed to cool, followed by measuring fluorescence intensity with a fluorescent microplate reader (Spectra MAX Gemini EM, MDC Japan, Inc.) ([…]). The amount of hemoglobin induced to be produced by each compound was determined based on a value of 100% for the amount of hemoglobin produced in a non-stimulated state in the absence of addition of a compound (% of control).

As to `CC(=O)N1c2c(ccc3ccccc23)[C@H](Nc2ccc(Cl)cc2)C[C@@H]1C` (relative stereo) [Compound 5, cis-1-acetyl-4-[(4-chlorophenyl)amino]-2-methyl-1,2,3,4-tetrahydro-benzo[h]quinoline], the activity at 10 µM in assay [1] was 183%. Turning to `CC(=O)N1c2ccncc2[C@H](Nc2ccc(Cl)cc2)C[C@@H]1C` (relative stereo) [Compound 2, cis-1-acetyl-4-[(4-chlorophenyl)amino]-2-methyl-3,4-dihydro-2H-[1,6]-naphthyridine], in assay [2], the activity at 6 µM worked out at 249%. For the same compound, the activity at 3 µM in assay [1] was 392%. Regarding `CC(=O)N1c2cc3c(cc2C(Nc2ccc(Cl)cc2)CC1C)OCCO3` (centres unmarked) [Compound 11, 6-acetyl-9-[(4-chlorophenyl)amino]-7-methyl-2,3,6,7,8,9-hexahydro-[1,4]dioxano[2,3-g]quinoline], the activity at 6 µM in assay [2] stood at 302%. Further, the activity at 10 µM in assay [1] stood at 190%.

As for `CC(=O)N1c2ncccc2[C@H](Nc2ccc(Cl)cc2)C[C@@H]1C` (relative stereo) [Compound 1, cis-1-acetyl-4-[(4-chlorophenyl)amino]-2-methyl-3,4-dihydro-2H-[1,8]-naphthyridine], the activity at 6 µM in assay [2] is 197%. Further, the activity at 3 µM in assay [1] was 416%. Regarding `CC(=O)N1c2ccc3[nH]cnc3c2C(Nc2ccc(Cl)cc2)CC1C` (stereo not drawn) [Compound 8, Cis-1-acetyl-9-[(4-chlorophenyl)amino]-7-methyl-6,7,8,9-tetrahydro-1H-imiazo[4,5-f]quinoline], the activity at 6 µM in assay [2] amounted to 185%. For the same compound, the activity at 10 µM in assay [1] turned out to be 104%. With `CC(=O)N1c2ccsc2C(Nc2ccc(Cl)cc2)CC1C` (centres unmarked) [Compound 4, 1-(7-(4-chlorophenylamino)-5-methyl-6,7-dihydrothieno[3,2-b]pyridine-4(5H)-yl)ethanone], in assay [2], the activity at 6 µM is 135%. For the same compound, the activity at 3 µM in assay [1] was 137%.

Turning to `CC(=O)N1c2ccc3[nH]ccc3c2[C@H](Nc2ccc(Cl)cc2)C[C@@H]1C` (relative stereo) [Compound 7, cis-6-acetyl-9-(4-chlorophenylamino)-7-methyl-6,7,8,9-tetrahydro-3H-pyrrolo[3,2-f]quinoline], the activity at 6 µM in assay [2] amounted to 436%. In assay [1], the activity at 10 µM amounted to 137%. As for `CC(=O)N1c2cccnc2[C@H](Nc2ccc(Cl)cc2)C[C@@H]1C` (relative stereo) [Compound 3, cis-1-acetyl-4-[(4-chlorophenyl)amino]-2-methyl-3,4-dihydro-2H-[1,5]-naphthyridine], in assay [2], the activity at 6 µM came out at 105%. Besides, the activity at 3 µM in assay [1] turned out to be 153%. Take `CC(=O)N1c2ccc3oc(=O)ccc3c2[C@H](Nc2ccc(Cl)cc2)C[C@@H]1C` (relative stereo) [Compound 9, cis-7-acetyl-10-(4-chlorophenylamino)-8-methyl-7,8,9,10-tetrahydro-3H-pyrano[3,2-f]-quinolin-3-one]: the activity at 6 µM in assay [2] was 166%. The activity at 10 µM in assay [1] turned out to be 116%. Regarding `CC(=O)N1c2cc3c(cc2[C@H](Nc2ccc(Cl)cc2)C[C@@H]1C)OCO3` (relative stereo) [Compound 10, cis-1-[8-(4-chlorophenylamino)-6-methyl-7,8-dihydro-[1,3]dioxolo[4,5-g]quinolin-5(6H)-yl]ethanone], the activity at 6 µM in assay [2] stood at 520%. The activity at 10 µM in assay [1] turned out to be 191%. `CC(=O)N1c2cc3c(cc2C(Nc2ccc(Cl)cc2)CC1C)OCC(=O)N3` (stereo not drawn) [Compound 12, cis-6-acetyl-9-(4-chlorophenylamino)-7-methyl-6,7,8,9-tetrahydro-2H-[1,4]oxazino[2,3-g]quinolin-3-(4H)-one]: the activity at 10 µM in assay [1] amounted to 103%.
